What all share (test): inhibition of tumour cell growth, NCI panel, 48 h
For experiment [1], the system named is A498.
For experiment [2], the system named is A549.
In experiment [3] the test system is HCT-15.
The subject of experiment [4] is HT-29.
For experiment [5], the system named is IGROV-1.
The subject of experiment [6] is MDA-N.
For experiment [7], the system named is MOLT-4.
For experiment [8], the system named is Malme-3M.
The test system of experiment [9] is NCI-H226.
Experiment [10] relates to NCI-H460.
Experiment [11] relates to OVCAR-8.
Experiment [12] relates to PC-3.
The subject of experiment [13] is SF-539.
Experiment [14] concerns SN12C.
Experiment [15] relates to SNB-19.
Experiment [16] concerns T47D.
The subject of experiment [17] is U-251.
The test system of experiment [18] is UACC-62.
In experiment [19] the test system is HOP-62.
For experiment [20], the system named is TK-10.

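Growth conditions: 96-well plates. Treatment: test compound, 48 hours, 5 concentrations. Analysis: linear interpolation between bracketing concentrations; unreached endpoints set to highest concentration. GI50 marks 50% less growth.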 Active and inactive are the calls of the source. Rule as the data show it: active = GI50 up to about 1.1 µM and inactive = higher.

`Cc1cccc(C(C)(C)C)c1NC(=O)/C(Cc1nc2ccc([N+](=O)[O-])cc2nc1O)=N\NC(=O)C[N+](C)(C)C`: the GI50 in experiment [1] was 60.7 µM (inactive); in experiment [2], > 100 µM (inactive); in experiment [3], more than 100 µM; in experiment [4], > 100 µM (inactive); in experiment [5], > 100 µM (inactive); in [6], > 100 µM (inactive). The GI50 in experiment [7] is 38.5 µM (inactive); in [8] it was > 100 µM (inactive); in [9], > 100 µM (inactive); in experiment [10], > 100 µM (inactive); in experiment [11] it was > 100 µM (inactive); in [12] it was 62.5 µM (inactive). For the same molecule, the GI50 is > 100 µM (inactive) in [13]; > 100 µM (inactive) in experiment [14]; > 100 µM (inactive) in [15]; 53.5 µM (inactive) in [16]; > 100 µM (inactive) in [17]; > 100 µM (inactive) in experiment [18].
Consider `O=C1C(=C(C(=O)c2ccccc2)C(=O)c2ccccc2)OC(c2ccccc2)=C1C(=O)c1ccccc1`, for which the GI50 in experiment [1] is 15.6 µM (inactive); in experiment [2], 9.04 µM (inactive); in [3] it was 3.36 µM; in experiment [19], 3.03 µM (inactive); in [4], 11.7 µM (inactive); in experiment [5] it was 0.164 µM (active). Further, the GI50 in experiment [6] is 6.47 µM (inactive); in experiment [7] it was 1.98 µM (inactive); in [8], 12.6 µM (inactive); in experiment [9], 3.74 µM (inactive); in [10], 3.02 µM (inactive); in experiment [11] it was 4.15 µM (inactive). The GI50 in [12] was 13.2 µM (inactive); in [13] it was 5.78 µM (inactive); in experiment [14], 3.29 µM (inactive); in [15], 10.2 µM (inactive); in experiment [16], 12 µM (inactive); in experiment [20], 9.35 µM (inactive). Moreover, the GI50 in experiment [17] is 4.46 µM (inactive); in experiment [18], 4.33 µM (inactive).
In the case of `Cc1cc(N(CCC#N)CCC#N)ccc1C(/N=N/c1ccccc1)=N\NC(=O)c1cc(Cl)ccc1O`, the GI50 is 59.2 µM (inactive) in experiment [1]; 29.4 µM (inactive) in experiment [2]; 18.4 µM in experiment [3]; 41.8 µM (inactive) in experiment [19]; 15.5 µM (inactive) in experiment [4]; 26.2 µM (inactive) in experiment [5]. The GI50 was 32.6 µM (inactive) in experiment [6]; 39 µM (inactive) in experiment [7]; 27.9 µM (inactive) in experiment [8]; 20.5 µM (inactive) in experiment [9]; 24.5 µM (inactive) in [10]; 21.5 µM (inactive) in experiment [11]. The GI50 in experiment [12] is 23.5 µM (inactive); in [13], 20.5 µM (inactive); in experiment [14] it was 26.5 µM (inactive); in experiment [15] it was 49 µM (inactive); in [16] it was 11.4 µM (inactive); in experiment [20], 14.9 µM (inactive). The GI50 is 33.1 µM (inactive) in experiment [17] and 7.71 µM (inactive) in [18].
As for `Cc1sc(Nc2ccccc2[N+](=O)[O-])c(C#N)c1C`, the GI50 is 29.4 µM (inactive) in [1]; > 100 µM (inactive) in experiment [2]; 23 µM in experiment [3]; 20.8 µM (inactive) in experiment [19]; > 100 µM (inactive) in experiment [6]; > 100 µM (inactive) in experiment [7]. The GI50 in experiment [8] was 0.0556 µM (active); in [9], 39.7 µM (inactive); in [10] it was > 100 µM (inactive); in experiment [11], 27.7 µM (inactive); in experiment [12], 94.8 µM (inactive); in [13], 21.5 µM (inactive). The GI50 in experiment [14] was 40.3 µM (inactive); in experiment [15] it was 26.2 µM (inactive); in [16] it was 28.4 µM (inactive); in experiment [17] it was 21.3 µM (inactive); in experiment [18] it was 77.8 µM (inactive).
For the molecule `O=C(Nc1ccccc1)n1[nH]c(=O)n(-c2ccccc2)c1=O`, the GI50 in experiment [1] was > 100 µM (inactive); in [2], > 100 µM (inactive); in experiment [3], more than 100 µM; in experiment [4], > 100 µM (inactive); in experiment [6], > 100 µM (inactive); in [8], > 100 µM (inactive). Besides, the GI50 in [9], in experiment [10], in [11], in experiment [12], in [13] and in [14] was > 100 µM (inactive) each time. In addition, the GI50 in [15], in experiment [16], in experiment [20], in [17] and in experiment [18] was > 100 µM (inactive) throughout.
As to `CC(=O)OCC1OC(n2c3c(c(-c4ccc(C)cc4)c(C#N)c2=S)C(=O)CC(C)(C)C3)C(OC(C)=O)C(OC(C)=O)C1OC(C)=O` (centres undefined), the GI50 in experiment [1] was 32.1 µM (inactive); in [2] it was 50.4 µM (inactive); in experiment [19], 62.5 µM (inactive); in [4], 27.3 µM (inactive); in experiment [5], 50.1 µM (inactive); in experiment [6], 15.7 µM (inactive). Besides, the GI50 in experiment [7] is 25.1 µM (inactive); in experiment [8], > 100 µM (inactive); in experiment [9], 23.3 µM (inactive); in experiment [10], 42.2 µM (inactive); in experiment [11] it was 36.4 µM (inactive); in [12] it was 18.3 µM (inactive). Also, the GI50 in experiment [13] is 23.3 µM (inactive); in experiment [14], 17.6 µM (inactive); in experiment [15], > 100 µM (inactive); in experiment [16], > 10 µM (inactive); in experiment [20], > 100 µM (inactive); in experiment [17], 30.3 µM (inactive). In addition, the GI50 in [18] is 18.9 µM (inactive).
For the molecule `O=c1[nH]c2c(Nc3c4ccccc4nc4ccccc34)c([N+](=O)[O-])c(Nc3c4ccccc4nc4ccccc34)c([N+](=O)[O-])c2[nH]1`, the GI50 was 1.32 µM (inactive) in experiment [1]; 1.55 µM (inactive) in [2]; 1.82 µM in experiment [3]; 1.69 µM (inactive) in experiment [19]; 0.618 µM (active) in experiment [4]; 1.69 µM (inactive) in experiment [5]. The GI50 was 2.36 µM (inactive) in [6]; 0.38 µM (active) in experiment [7]; 1.57 µM (inactive) in experiment [8]; 2.68 µM (inactive) in [9]; 1.33 µM (inactive) in [10]; 1.21 µM (inactive) in experiment [11]. Also, the GI50 in experiment [12] is 2.05 µM (inactive); in experiment [13] it was 2.61 µM (inactive); in experiment [14], 1.45 µM (inactive); in [15], 2.64 µM (inactive); in experiment [16], 3.29 µM (inactive); in experiment [20] it was 2.11 µM (inactive). The GI50 in experiment [17] is 2.33 µM (inactive); in [18], 1.39 µM (inactive).
`O=C1c2ccccc2C(=O)N1CCCC(=O)n1cc(F)c(=O)[nH]c1=O`: the GI50 was 4.69 µM (inactive) in [1]; 3.6 µM (inactive) in [2]; 8.41 µM in experiment [3]; 8.26 µM (inactive) in experiment [19]; 4.54 µM (inactive) in [4]; 3.4 µM (inactive) in experiment [5]. Further, the GI50 in experiment [6] is 16.1 µM (inactive); in experiment [7], 35.4 µM (inactive); in experiment [8], 27.9 µM (inactive); in [9], 38.5 µM (inactive); in experiment [10] it was 2.68 µM (inactive); in [11], 10.7 µM (inactive). Besides, the GI50 in experiment [12] was 30.1 µM (inactive); in experiment [13], 7 µM (inactive); in [14] it was > 26.1 µM (inactive); in experiment [15], 49.1 µM (inactive); in [16], > 33.7 µM (inactive); in [20], > 41.2 µM (inactive). The GI50 is > 100 µM (inactive) in experiment [17] and 23.6 µM (inactive) in experiment [18].
Turning to `N=C(N)CCNC(=O)C1CCC(N)=N1` (centres undefined), the GI50 is 16 µM (inactive) in experiment [1]; 6.49 µM (inactive) in experiment [2]; 37.9 µM in experiment [3]; 4.38 µM (inactive) in [19]; 5.2 µM (inactive) in [4]; 8.49 µM (inactive) in experiment [5]. For the same molecule, the GI50 was 21.4 µM (inactive) in experiment [6]; 12.2 µM (inactive) in experiment [7]; 7.5 µM (inactive) in experiment [8]; 18.1 µM (inactive) in experiment [9]; 7.55 µM (inactive) in experiment [10]; 7.28 µM (inactive) in experiment [11]. Further, the GI50 in experiment [12] is 6 µM (inactive); in experiment [13] it was 11.6 µM (inactive); in experiment [14] it was 5.27 µM (inactive); in experiment [15], 6.76 µM (inactive); in experiment [16], 6.5 µM (inactive); in experiment [20] it was 22.7 µM (inactive). The GI50 is 7.89 µM (inactive) in experiment [17] and 14 µM (inactive) in experiment [18].
As for `CN1CCN(C(=S)N2CCN(C)CC2)CC1`, the GI50 is 5.62 µM (inactive) in experiment [1]; > 100 µM (inactive) in experiment [2]; > 100 µM (inactive) in [19]; 1.73 µM (inactive) in experiment [4]; > 84.3 µM (inactive) in experiment [5]; > 26.6 µM (inactive) in experiment [6]. Moreover, the GI50 is > 100 µM (inactive) in experiment [8]; > 100 µM (inactive) in [9]; 5.35 µM (inactive) in experiment [10]; > 100 µM (inactive) in experiment [11]; > 29.8 µM (inactive) in [12]; 10.8 µM (inactive) in [13]. Moreover, the GI50 in experiment [14] is > 100 µM (inactive); in [15] it was > 100 µM (inactive); in experiment [16], 2.11 µM (inactive); in [20], > 19.7 µM (inactive); in [17], > 100 µM (inactive); in experiment [18], 4.85 µM (inactive).

Values taken from ChEMBL document CHEMBL1201862, “PubChem BioAssay data set” (2004).
